The numbers were not newly measured in patent US20210260003A9 (AZIENDE CHIMICHE RIUNITE ANGELINI FRANCESCO A.C.R.A.F. …, priority 2017, published 2021), which cites them from elsewhere.

For data set [1] the following is noted: orally administered.

As for `CC(C(=O)O)c1cccc(C(=O)c2ccccc2)c1` (centres unmarked) [ketoprofen], the “peak concentration (time)” value in data set [1] was 0.5 to 2 h.
Consider hydroxypropyl-β-cyclodextrin, for which the solubility in water is on record as 600 mg/mL.
